The text below walks through data of a melting point compilation (Tetko et al.; mined from patent text by program, amines drawn as free bases though some values may be those of a salt).

The structures appear in SMILES notation.

By melting point is commonly meant the temperature of the solid-liquid transition. On to `CC(=O)NC[C@H]1CN(c2ccc(/C=C3\C(=O)N(c4ccccc4)N=C3C(C)(C)C)cc2)C(=O)O1`, for which the melting point came out at 70 °C.

`COCO[C@@H]1[C@H]2OC(C)(C)O[C@H]2[C@H](O[C@H]2C[C@H]3OC(C)(C)OC[C@]34C3C(CC[C@]4(O)C2)[C@@]2(O)CC[C@H](C#N)[C@@]2(C)C[C@H]3OCOC)O[C@H]1C` (stereo partly drawn) gave a melting point of 97 to 99 °C.

In the case of `COc1cccc2c(NCc3ccccc3C)cc(C(=O)O)nc12`, the melting point lay within 276 to 277 °C. `CC(=O)Oc1ccc(N2CCC(=O)c3ccccc32)cc1` displayed a melting point of 130 to 132 °C. As for `CC1(O)c2ccc(Cl)cc2CC1(F)S(C)(=O)=O` (stereo not drawn), the melting point worked out at 148 °C.

Consider `COc1cc(C(=O)N2CCCCc3cc(Cl)ccc32)ccc1OCc1ccccc1Cl`, for which the melting point amounted to 135 °C. `COc1ccc(-c2ccnc3c(C(=O)c4cccs4)cnn23)cc1NC(=O)CC(C)C` had a melting point of 192 to 194 °C. Under `CC(C)(C)OC(=O)NC(Cc1ccccc1)C(O)C(O)C(Cc1ccccc1)NC(=O)OC(C)(C)C` (stereo not drawn) stands 208 to 212 °C; under `CCOC(=O)c1ccc2c(c1)C(=CCCI)CN2`, 81 °C; under `COCc1cc2ccccc2oc1=O`, 72 to 73 °C.

`O=C1Cc2cc(NC(=O)c3ccccc3[N+](=O)[O-])ccc2N1` gave a melting point of 265 °C. As for `CN(C)CCCn1cc(-c2ccccc2)sc1=Nc1ccccc1`, the figure is 84 to 86 °C; as for `COC(=O)CCC#Cc1ccccc1[N+](=O)[O-]`, 44 to 46 °C; as for `COc1ccc(N(C)C(=O)CN(C(=O)CN2C(=O)c3ccccc3C2=O)c2ccccc2)cc1`, 162 °C. Under `COc1ccc(C(=O)O)c2c1oc1ccccc12` stands 280 °C; under `CN1CCc2cc(OC[C@H]3CO[C@](Cn4ccnc4)(c4ccc(Cl)cc4Cl)O3)ccc2C12CCSCC2` (racemic), 138 to 139 °C; under `O=C(c1ncco1)c1ccc([N+](=O)[O-])cc1Cl`, 124 to 125 °C. `CS(=O)(=O)Nc1ccc(C(N)=NO)cc1Oc1ccc(F)cc1F` yielded a melting point of 174 to 175 °C.

Molecule `COC(=O)COc1ccc(I)cc1` gave a melting point of 69 to 70 °C.

As for `COC(=O)c1ccc(/C=C/Cc2cc3c(cc2C)CCC(C)(C)CC3)cc1`, the melting point fell in the range of 59 to 60 °C.

Consider `Cc1nc(C)c(Cl)c(NCc2nccc(SCCCSCCSc3ncccn3)c2C)n1`, for which the melting point was in the range of 112 to 115 °C. The molecule `NS(=O)(=O)c1cc2c(Cl)c(N3CCOCC3)ccc2s1` registered a melting point of 195 to 199 °C. As to `COc1ccc2c(Cc3c(Cl)cncc3Cl)nn(CC(=O)NO)c(=O)c2c1`, the melting point was in the range of 256 to 258 °C. `CNCc1ccccc1-c1ccc(C(=O)N2Cc3ccc(C(=O)NCc4cccnc4)n3Cc3ccccc32)cc1`: the melting point was in the range of 149 to 150 °C. As for `CN(CCc1ccc(NS(C)(=O)=O)cc1)Cc1cc2cc(NS(C)(=O)=O)ccc2o1`, the figure is 177 to 179 °C; as for `N#CC1=C(Nc2ccc(F)cc2)c2ccccc2CC1`, 151 to 153 °C. In the case of `CC1Cc2cc3c(cc2C(c2ccc([N+](=O)[O-])cc2)=NN1c1ccc(Cl)nn1)OCO3` (stereo not drawn), the melting point fell in the range of 254 to 255 °C. As for `CCOC(=O)c1cc(-c2ccc3ccccc3c2)[nH]c1N`, the figure is 149 to 151 °C; as for `COc1ccc2c3cc(C(=O)N4CCCCC4)ccc3n(CC3CCCCC3)c2c1`, 91 to 92 °C; as for `COC(=O)c1ccccc1C=CC(=O)C=Cc1ccccc1C(=O)OC`, 221 to 223 °C. Under `C=CCOc1cc(-n2c(OCC)nc(C(F)(F)F)cc2=O)c(F)cc1Br` stands 68 to 70 °C.

`CCCc1nc2ccccc2n1Cc1ccc(-c2ccccc2-c2nnn[nH]2)nc1` showed a melting point of 240 to 241 °C. `COc1ccc(C2=NCc3nnc(CN(C)C)n3-c3ccc(Cl)cc32)cc1`: the melting point was in the range of 224 to 225 °C.
